# Assay: Initiator absorptivity, 400–500 nm in acetonitrile
# Format: physicochemical
# Conditions: normalized by mass
# Method: The absorptivity is the absorbance in the range of 400–500 nm in acetonitrile normalized by mass. The higher the value, the higher the absorption in the visible light range. The first three initiators undergo unimolecular bond cleavage upon irradiation. The last three initiators require a co-initiator, such as an amine, to undergo a bimolecular reaction. The initiators (and EDMAB amine if required) were added to the resin. Samples were coated on a white mixing pad, evaporated for greater than 60 seconds, and irradiated at 500 mW/cm^2 using a Bisco VIP light curing system. Samples were irradiated for 5 seconds, 10 seconds, 30 seconds, and 10 seconds in the absence of air. The “no air” cure was performed between two Mylar slips, each 0.25 mm thick. The actual concentration of initiator in the resin was double that shown in the table due to the evaporation of the acetone.
row,SMILES,Absorbance × 10^−3
1,"O=C1C(=O)c2ccccc2-c2ccccc21 [PAQ, phenanthrenequinone]",466 × 10^−3
2,"CCCCOc1ccc2cc3cc(I)c(=O)c(I)c-3oc2c1 [HNu, 5,7-diiodo-3-butoxy-6-fluorone]",2960 × 10^−3
3,"CCOP(=O)(C(=O)c1c(C)cc(C)cc1C)c1ccccc1 (stereo not drawn) [TPOL, ethyl-2,4,6-trimethylbenzoyl-phenylphosphinate]",4 × 10^−3
4,"Cc1cc(C)c(C(=O)P(=O)(C(=O)c2c(C)cc(C)cc2C)c2ccccc2)c(C)c1 [Composition 819, bis(2,4,6-trimethylbenzoyl)-phenylphosphineoxide]",23 × 10^−3
5,"CC12CCC(C(=O)C1=O)C2(C)C (stereo not drawn) [CQ, camphorquinone]",11 × 10^−3
6,"Cc1cc(C)c(C(=O)P(=O)(c2ccccc2)c2ccccc2)c(C)c1 [TPO, 2,4,6-trimethylbenzoyl-diphenylphosphinate]",6 × 10^−3

# Source: patent US7081485B2, “Non-volatile dental compositions containing multifunctional acrylate compounds and lacking an oxygen-inhibited layer” (Bisco, Inc., priority 2002, dated 2006)
